pIC50: −log10 of the molar value. “And” between values parts separate entries of the source, which are not always exact repeats. Identical values can stand only once.
Assays:
MOLM-14 cells = assay: AlamarBlue cell viability assay, MOLM-14; conditions: for Cell viability, MOML-14: Supplementary Figure 7, replicates
Experimental: The IC50 was calculated using GraphPad Prism software with a four-parameter dose-response curve fit.

BTK [1] = target: T1, BTK (Homo sapiens, UniProt Q06187); assay: BTK degradation in MOLM-14 cells (western blot); assay type: cell-based; set-up: endogenous in cells; host or cells: MOLM-14; conditions: MOLM-14 cells; for Degradation at 200 nM (percentage of BTK degradation): 24 h incubation
BTK [2] = target: T1, BTK; assay: In vitro BTK kinase assay (PhosphoSens); assay type: biochemical; set-up: purchased SignalChem B10-10H-10
Experimental: BTK kinase activity inhibition IC50 was measured by PhosphoSens® Kinase Assay Kit (Assay Quant Technologies Inc., Cat.# CSKS-AQT0101K). […] Active recombinant BTK was purchased from SignalChem (Cat.# B10-10H-10). All the drugs (3 warhead control and 4 PROTACs) were dissolved in DMSO (10 mM). […] To calculate the IC50, subtract the background fluorescence determined with the “no kinase” control for each time point from the total signal to obtain corrected Relative Fluorescence Units (RFU) values. Plot the corrected RFU vs. Time for each inhibitor concentration and determine the initial reaction rates (slope of the linear portion) for each progress curve for each inhibitor concentration. Then plot velocity (RFU corrected/minute) vs [inhibitor] and determine the IC50 using a 4-parameter logistic fit.

NanoLuc-CRBN fusion = target: T2, NanoLuc-CRBN fusion (Homo sapiens, UniProt Q96SW2); assay: NanoBRET CRBN in-cell target engagement assay; assay type: cell-based; conditions: for NanoBRET(%): Figure 3h, replicates; for pIC50: HEK-293 cells, CRBN tracer 0.5 µM, triplicates, read-out: CRBN target engagement IC50,TE
T2 construct: host or cells: HEK 293T/17
Experimental: The target engagement assay for BTK or CRBN was from Promega (BTK kit, Cat. No. N2500; CRBN kit, Cat. No. CS1810C136) and was performed according to the manufacture’s instruction with some modifications. […] After 2 h incubation, the 3X Nano-Glo® Substrate with NanoLuc® extracellular inhibitor were added to cells and developed for 3 min at room temperature. BRET signals were collected using a BioTek SYNERGY H1 microplate reader equipped with a 450/80-nm BP filter for donor emission and a 610-nm LP filter for acceptor emission. BRET Ratio was calculated with the equation: [(Acceptor sample/Donor sample)–(Acceptor no tracer control/Donor no tracer control)] × 1000. The IC50 of the compound against its BTK or CRBN tracer was calculated using GraphPad Prism software.

T1 sequence (Q06187 whole entry): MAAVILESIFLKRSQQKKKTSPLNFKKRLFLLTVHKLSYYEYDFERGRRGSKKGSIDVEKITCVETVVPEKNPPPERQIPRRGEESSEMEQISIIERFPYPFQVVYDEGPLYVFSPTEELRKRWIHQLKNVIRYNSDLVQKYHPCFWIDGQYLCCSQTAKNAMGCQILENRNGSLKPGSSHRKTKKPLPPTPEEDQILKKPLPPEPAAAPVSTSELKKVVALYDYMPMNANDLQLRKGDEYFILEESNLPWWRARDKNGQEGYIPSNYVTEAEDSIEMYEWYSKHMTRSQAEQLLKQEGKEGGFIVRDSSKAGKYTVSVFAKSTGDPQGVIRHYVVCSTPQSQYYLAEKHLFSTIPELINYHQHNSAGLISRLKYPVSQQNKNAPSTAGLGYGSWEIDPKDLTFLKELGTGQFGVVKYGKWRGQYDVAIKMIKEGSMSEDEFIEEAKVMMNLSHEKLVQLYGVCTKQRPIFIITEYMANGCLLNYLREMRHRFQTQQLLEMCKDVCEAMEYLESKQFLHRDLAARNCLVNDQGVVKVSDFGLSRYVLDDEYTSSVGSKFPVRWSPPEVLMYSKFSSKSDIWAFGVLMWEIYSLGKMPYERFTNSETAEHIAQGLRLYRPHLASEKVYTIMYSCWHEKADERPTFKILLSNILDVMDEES
T2 sequence (Q96SW2 whole entry, the tested form may be a part): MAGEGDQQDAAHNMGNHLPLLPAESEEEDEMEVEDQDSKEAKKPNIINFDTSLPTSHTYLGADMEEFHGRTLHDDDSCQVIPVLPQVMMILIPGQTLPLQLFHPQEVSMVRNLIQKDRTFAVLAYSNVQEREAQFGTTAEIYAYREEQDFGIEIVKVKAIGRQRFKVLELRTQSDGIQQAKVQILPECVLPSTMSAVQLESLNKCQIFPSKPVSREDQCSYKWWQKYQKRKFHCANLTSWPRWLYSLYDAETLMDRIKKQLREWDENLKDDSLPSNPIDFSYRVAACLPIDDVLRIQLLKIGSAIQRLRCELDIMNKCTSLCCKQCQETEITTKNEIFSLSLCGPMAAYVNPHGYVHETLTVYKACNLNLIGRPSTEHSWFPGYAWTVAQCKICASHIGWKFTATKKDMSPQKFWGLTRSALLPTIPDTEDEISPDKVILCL
T2 sequence (Q16531 whole entry partner, the tested form may be a part): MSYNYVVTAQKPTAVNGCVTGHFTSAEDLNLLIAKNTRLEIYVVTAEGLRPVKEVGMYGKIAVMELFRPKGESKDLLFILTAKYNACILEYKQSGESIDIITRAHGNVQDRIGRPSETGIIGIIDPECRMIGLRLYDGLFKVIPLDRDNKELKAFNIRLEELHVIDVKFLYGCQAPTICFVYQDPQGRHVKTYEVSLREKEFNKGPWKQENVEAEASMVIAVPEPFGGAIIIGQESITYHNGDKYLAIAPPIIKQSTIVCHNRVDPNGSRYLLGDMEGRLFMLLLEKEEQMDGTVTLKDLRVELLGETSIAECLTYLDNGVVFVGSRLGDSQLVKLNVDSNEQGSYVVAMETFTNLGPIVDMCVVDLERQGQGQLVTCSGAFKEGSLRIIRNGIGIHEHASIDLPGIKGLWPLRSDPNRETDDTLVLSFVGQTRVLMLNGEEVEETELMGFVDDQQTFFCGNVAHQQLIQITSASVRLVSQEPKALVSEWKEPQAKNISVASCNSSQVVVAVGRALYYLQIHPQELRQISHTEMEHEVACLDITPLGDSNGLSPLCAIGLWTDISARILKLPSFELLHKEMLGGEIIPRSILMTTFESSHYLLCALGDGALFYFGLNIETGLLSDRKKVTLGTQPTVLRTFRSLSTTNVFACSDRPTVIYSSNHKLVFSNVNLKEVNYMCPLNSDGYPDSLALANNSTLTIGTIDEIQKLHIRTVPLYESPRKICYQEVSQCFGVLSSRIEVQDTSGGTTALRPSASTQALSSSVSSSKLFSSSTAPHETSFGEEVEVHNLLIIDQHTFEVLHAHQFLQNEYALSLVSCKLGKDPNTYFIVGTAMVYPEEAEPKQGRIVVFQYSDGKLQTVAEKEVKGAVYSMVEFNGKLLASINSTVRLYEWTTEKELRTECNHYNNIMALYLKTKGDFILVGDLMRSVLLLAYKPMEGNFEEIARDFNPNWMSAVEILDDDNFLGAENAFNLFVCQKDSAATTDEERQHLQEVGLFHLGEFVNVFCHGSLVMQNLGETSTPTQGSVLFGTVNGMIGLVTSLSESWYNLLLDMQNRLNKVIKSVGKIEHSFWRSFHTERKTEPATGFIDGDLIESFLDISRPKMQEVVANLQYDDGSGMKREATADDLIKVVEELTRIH

Compound	Cell viability, MOML-14 (MOLM-14 cells; drug concentration 1.00E-05 M)	Cell viability, MOML-14 (MOLM-14 cells; drug concentration 1.60E-08 M)	Cell viability, MOML-14 (MOLM-14 cells; drug concentration 2.00E-06 M)	Cell viability, MOML-14 (MOLM-14 cells; drug concentration 3.20E-09 M)	Cell viability, MOML-14 (MOLM-14 cells; drug concentration 4.00E-07 M)	Cell viability, MOML-14 (MOLM-14 cells; drug concentration 6.40E-10 M)	Cell viability, MOML-14 (MOLM-14 cells; drug concentration 8.00E-08 M)	Degradation at 200 nM (percentage of BTK degradation) (BTK [1])	NanoBRET(%) (NanoLuc-CRBN fusion; drug concentration 1.00E-05 M)	NanoBRET(%) (NanoLuc-CRBN fusion; drug concentration 1.60E-08 M)	NanoBRET(%) (NanoLuc-CRBN fusion; drug concentration 2.00E-06 M)	NanoBRET(%) (NanoLuc-CRBN fusion; drug concentration 3.20E-09 M)	NanoBRET(%) (NanoLuc-CRBN fusion; drug concentration 4.00E-07 M)	NanoBRET(%) (NanoLuc-CRBN fusion; drug concentration 8.00E-08 M)	pIC50 (NanoLuc-CRBN fusion)	also measured
CN(CCOCCNC(=O)CNc1cccc2c1C(=O)N(C1CCC(=O)NC1=O)C2=O)C(C)(C)C=C(C#N)C(=O)N1CCC[C@@H](n2nc(-c3ccc(Oc4ccccc4)cc3)c3c(N)ncnc32)C1 (stereo partly drawn) [RC-3]	6.131 and 2.152 and 5.745 and 1.563 and 5.644	83.11 and 86.5611 and 70.0365 and 75.0101 and 88.6317	14.9208 and 11.551 and 11.6931 and 9.785 and 11.754	76.8575 and 93.7881 and 76.4921 and 85.0995 and 82.1762	53.106 and 44.4377 and 39.7686 and 41.149 and 48.4166	89.9919 and 78.9687 and 69.3463 and 82.7852 and 87.4746	71.5794 and 85.3634 and 65.8344 and 81.7296 and 79.4965	39%								
CCC(=O)N1CCCC(n2nc(-c3ccc(Oc4ccccc4)cc3)c3c(N)ncnc32)C1 (stereo not drawn) [RNC-Ctrl]	9.88 and 4.549 and 8.014 and 2.825 and 3.518	95.1882 and 83.3008 and 72.3018 and 73.7944 and 64.519	23.8281 and 18.1065 and 24.6633 and 17.9289 and 14.3751	99.7903 and 102.278 and 76.2998 and 63.1686 and 63.4529	54.0886 and 58.7263 and 56.6474 and 49.4687 and 44.0492	93.8377 and 115.463 and 71.822 and 77.5792 and 66.4558	94.9216 and 79.4804 and 66.9 and 56.8073 and 62.3334									pIC50 (MOLM-14 cells; Homo sapiens, MOLM-14, 72 h, read-out: Cell viability IC50): 6.38; pIC50 (BTK [2]): 7.87; activity at 12.8 pM (BTK [2]; Supplementary Figure 5, drug concentration 12.8 pM, replicates, read-out: Inhibition(%)): 94.1%; activity at 64 pM (BTK [2]; Supplementary Figure 5, drug concentration 64 pM, replicates, read-out: Inhibition(%)): 94%; activity at 0.00032 µM (BTK [2]; Supplementary Figure 5, drug concentration 320 pM, replicates, read-out: Inhibition(%)): 92.7%; activity at 0.0016 µM (BTK [2]; Supplementary Figure 5, drug concentration 1600 pM, replicates, read-out: Inhibition(%)): 83.1%; activity at 0.008 µM (BTK [2]; Supplementary Figure 5, drug concentration 8000 pM, replicates, read-out: Inhibition(%)): 62.4%; activity at 0.04 µM (BTK [2]; Supplementary Figure 5, drug concentration 40000 pM, replicates, read-out: Inhibition(%)): 29.6%; activity at 0.2 µM (BTK [2]; Supplementary Figure 5, drug concentration 200000 pM, replicates, read-out: Inhibition(%)): 9.18%; activity at 1 µM (BTK [2]; Supplementary Figure 5, drug concentration 1000000 pM, replicates, read-out: Inhibition(%)): 3.99%; reduction of BTK inhibition activity compared with IRC-Ctrl (BTK [2]; ratio of IC50 values): 45 folds; activity at 2.56 pM (BTK [2]; read-out: Inhibition(%), Supplementary Figure 5, drug concentration 2.56 pM, replicates): 110%
CN(CCOCCOCCOCCNC(=O)CNc1cccc2c1C(=O)N(C1CCC(=O)NC1=O)C2=O)C(C)(C)C=C(C#N)C(=O)N1CCCC(n2nc(-c3ccc(Oc4ccccc4)cc3)c3c(N)ncnc32)C1 (stereo not drawn) [RC-5]	1.391 and 1.373 and 1.5492 and 0.5927 and 1.848	74.2327 and 92.4124 and 92.4946 and 100.939 and 90.3468	10.6332 and 11.0087 and 14.6588 and 13.2797 and 19.9049	91.6026 and 96.0448 and 87.3775 and 99.3838 and 93.8853	64.738 and 68.3352 and 96.2033 and 70.0311 and 76.4802	101.496 and 98.8968 and 89.2553 and 98.5858 and 94.7773	91.7317 and 86.3095 and 87.3482 and 74.3794 and 93.7562	56%								
CCCNc1nc(Nc2ccc(C#N)cc2)ncc1C#CCCCNC(=O)[C@H](C)N(C)C(=O)/C(C#N)=C/C(C)(C)N(C)CCCNC(=O)CCNc1cccc2c1C(=O)N(C1CCC(=O)NC1=O)C2=O (stereo partly drawn) [RC-FLT3]									35.9991% and 14.2807% and 25.1399%	91.6727% and 89.8569% and 90.7648%	22.2416% and 18.9083% and 40.0723%	100.385% and 96.7751% and 101.754%	38.0473% and 34.6413% and 45.5817%	64.8551% and 66.5991% and 71.8605%	6.52	
CN(CCCCNc1cccc2c1C(=O)N(C1CCC(=O)NC1=O)C2=O)C(C)(C)C=C(C#N)C(=O)N1CCCC(n2nc(-c3ccc(Oc4ccccc4)cc3)c3c(N)ncnc32)C1 (stereo not drawn) [RC-7]	14.5806 and 18.8166 and 13.8981 and 12.7996 and 18.6335	91.6861 and 127.114 and 140.005 and 143.301 and 145.198	29.6105 and 35.3113 and 28.8948 and 32.5316 and 40.9787	108.289 and 119.541 and 122.853 and 118.675 and 131.225	92.6182 and 112.666 and 109.446 and 93.7916 and 129.078	104.877 and 113.673 and 115.995 and 128.978 and 91.4031	94.8735 and 136.951 and 131.242 and 108.447 and 144.149	6%								
CN(CCOCCNC(=O)CNc1ccc2c(c1)C(=O)N(C1CCC(=O)NC1=O)C2=O)C(C)(C)C=C(C#N)C(=O)N1CCC[C@@H](n2nc(-c3ccc(Oc4ccccc4)cc3)c3c(N)ncnc32)C1 (stereo partly drawn) [RC-10]	6.648 and 2.814 and 5.855 and 1.001 and 2.266	84.9481 and 73.56 and 76.0529 and 61.3598 and 63.4939	15.1841 and 8.971 and 14.3343 and 7.989 and 11.1237	88.1209 and 77.847 and 69.5373 and 71.6336 and 68.102	52.6534 and 38.4514 and 40.831 and 37.0727 and 36.6572	87.0746 and 98.5269 and 68.2342 and 85.7413 and 74.9197	70.5949 and 66.9688 and 60.3777 and 66.9311 and 50.1039									BTK degradation (in words) (BTK [1]; indicated doses, 24 h): cannot induce any BTK degradation
CCCNc1nc(Nc2ccc(C#N)cc2)ncc1C#CCCCNC(=O)[C@H](C)N(C)C(=O)CCCN(C)CCCNC(=O)CCNc1cccc2c1C(=O)N(C1CCC(=O)NC1=O)C2=O (stereo partly drawn) [RNC-FLT3]									48.4243% and 48.1518% and 48.288%	120.01% and 113.24% and 126.78%	97.5318% and 86.9073% and 76.2828%	100.446% and 106.017%	98.4352% and 83.544% and 119.955%	117.071% and 115.752% and 114.432%	5.00	
CCCNc1nc(Nc2ccc(C#N)cc2)ncc1C#CCCCNC(=O)[C@H](C)N(C)C(=O)/C=C/CN(C)CCCNC(=O)CCNc1cccc2c1C(=O)N(C1CCC(=O)NC1=O)C2=O (stereo partly drawn) [IRC-FLT3]									33.2279% and 26.4905% and 27.0048%	92.7988% and 108.391% and 111.382%	38.4699% and 38.0091% and 38.2395%	129.579% and 139.696% and 92.9737%	76.4349% and 76.1877% and 65.5306%	100.627% and 103.984% and 84.3671%	5.82	

From publication PMC7450057, “Enhancing intracellular accumulation and target engagement of PROTACs with reversible covalent chemistry” (Nature Communications, 2020)
